Results on 3 compounds are retold here after US6114335A, “Benzoylguanidine derivatives, process for their preparation their use in the preparation of medicines” (Boehringer Ingelheim KG, priority 1996, dated 2000).

The IC50 is the point on the concentration scale where inhibition reaches its midpoint. Read a high IC50 as a need for much substance.

SMILES strings stand for the structures.

T1 sequence (P19634 whole entry): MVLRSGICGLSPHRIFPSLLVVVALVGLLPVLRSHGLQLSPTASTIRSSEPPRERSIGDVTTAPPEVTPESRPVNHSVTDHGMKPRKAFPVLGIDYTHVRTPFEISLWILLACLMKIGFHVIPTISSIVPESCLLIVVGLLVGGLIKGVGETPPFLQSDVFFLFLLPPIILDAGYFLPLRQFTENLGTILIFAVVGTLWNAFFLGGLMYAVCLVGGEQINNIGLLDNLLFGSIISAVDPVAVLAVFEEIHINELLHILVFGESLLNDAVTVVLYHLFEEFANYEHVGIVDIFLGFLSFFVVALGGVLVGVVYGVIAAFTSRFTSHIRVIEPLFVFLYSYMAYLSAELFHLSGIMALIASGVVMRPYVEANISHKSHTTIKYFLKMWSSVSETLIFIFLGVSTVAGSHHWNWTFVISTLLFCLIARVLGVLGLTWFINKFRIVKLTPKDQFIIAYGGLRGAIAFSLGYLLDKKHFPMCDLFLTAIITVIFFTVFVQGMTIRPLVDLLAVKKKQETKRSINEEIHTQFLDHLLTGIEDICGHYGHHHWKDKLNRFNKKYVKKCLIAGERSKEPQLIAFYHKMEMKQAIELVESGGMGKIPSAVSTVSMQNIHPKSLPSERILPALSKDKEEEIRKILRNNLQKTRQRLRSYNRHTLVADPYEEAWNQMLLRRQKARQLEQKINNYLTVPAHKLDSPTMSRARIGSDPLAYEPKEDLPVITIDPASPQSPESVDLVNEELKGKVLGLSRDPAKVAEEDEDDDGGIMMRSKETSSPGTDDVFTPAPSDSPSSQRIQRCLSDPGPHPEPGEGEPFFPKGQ

This assay concerns the target T1, Na^+ /H^+ Exchanger (Homo sapiens, UniProt P19634).
T1 construct: Human Intestinal Cancer Cells (HT-29); endogenous in cells; host or cells: HT-29
Kind of assay: Inhibition of the Na^+ /H^+ Exchanger in Human Intestinal Cancer Cells (HT-29). The format is cell-based. The following applies: HT-29 cells; BCECF fluorescence, cytoplasmic pH; 4 minutes at 37° C., pH 7.0. The procedure: Inhibition of the Na^+ /H^+ Exchanger in Human Intestinal Cancer Cells (HT-29):
HT-29 cells were incubated in growth medium at 37° C., 5% CO2. After 3-5 days the growth medium was removed, the cells were washed and charged with 7.5 μM BCECF-AM (pH-sensitive fluorescent dye) at 37° C. without any CO2. After 30 minutes the cells were washed and acidified with the following medium: 70 mM choline chloride, 20 mM NH4 Cl, […], 1.8 mM CaC2, 5 mM glucose and 15 mM HEPES, pH 7.5.
After 6 minutes incubation at 37° C. without CO2, the cells were washed and incubated for 5 minutes with washing medium: 120 mM choline chloride, 5 mM KCl, 1 mM MgCl2, 1.8 mM CaCl2, 5 mM glucose and 15 mM MOPS, pH 7.0. The washing medium was removed and control medium was added with or without the test compound: 120 mM NaCl, 5 mM KCl, 1 mM MgCl2, 1.8 mM CaCl2, 5 mM glucose, 15 mM MOPS, pH 7.0.
The cells were incubated for 4 minutes at 37° C. without CO2 and measured by fluorimetry (CytoFluor 2350). The fluorescence of the dye BCECF was measured at the excitation wavelengths of 485 nm (pH sensitive) and 440 nm (non pH-sensitive) and at the emission wavelength of 530 nm. The cytoplasmic pH was calculated from the ratio of fluorescences at 485 and 440 nm. The fluorescence ratio was calibrated by measuring the fluorescence signal after equilibration of external and internal pH with nigericin.
Compound `CN(C)CCN1CCN(c2ccc(C(=O)N=C(N)N)cc2S(C)(=O)=O)CC1` [Example 1] returned a 50% inhibitory concentration (IC50) of 500 nM.

With `CS(=O)(=O)c1cc(C(=O)N=C(N)N)ccc1N1CCN(C(=O)c2cccs2)CC1` [Example 4], the IC50 came to 31 nM.

For `CS(=O)(=O)c1cc(C(=O)N=C(N)N)ccc1N1CCN(C(=O)c2ccco2)CC1` [Example 3], the IC50 turned out to be 29 nM.
